Biological target: T1, Serine/threonine-protein kinase 4 (Human, UniProt Q13043)
T1 sequence (Q13043 whole entry): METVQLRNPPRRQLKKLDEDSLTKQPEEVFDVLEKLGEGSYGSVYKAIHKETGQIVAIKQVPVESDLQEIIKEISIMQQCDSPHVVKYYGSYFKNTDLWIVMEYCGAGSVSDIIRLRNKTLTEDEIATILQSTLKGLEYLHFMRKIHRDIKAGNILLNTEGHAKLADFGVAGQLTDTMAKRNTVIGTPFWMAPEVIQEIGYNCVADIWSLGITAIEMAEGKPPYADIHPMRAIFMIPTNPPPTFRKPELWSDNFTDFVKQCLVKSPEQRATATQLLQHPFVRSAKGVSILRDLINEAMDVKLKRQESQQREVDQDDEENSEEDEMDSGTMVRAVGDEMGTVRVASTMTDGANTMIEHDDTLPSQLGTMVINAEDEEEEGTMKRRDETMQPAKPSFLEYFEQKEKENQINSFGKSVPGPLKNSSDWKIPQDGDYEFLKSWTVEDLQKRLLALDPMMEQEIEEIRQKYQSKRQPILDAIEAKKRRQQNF
Assay: Biochemical Assay
Procedure: Biochemical IC50s were measured at Invitrogen using Z-lyte technology. Briefly, for STK4, the 2×STK4 (MST1)/Ser/Thr 07 mixture was prepared in 50 mM HEPES pH 7.5, 0.01% BRIJ35, 10 mM MgCl2, 1 mM EGTA. The final 10 μL Kinase Reaction consisted of 6.25-160 ng STK4 (MST1) and 2 μM Ser/Thr 07 in 50 mM HEPES pH 7.5, 0.01% BRIJ-35, 10 mM MgCl2, 1 mM EGTA. After the 1 hour Kinase Reaction incubation, 5 μL of a 1:100000 dilution of Development Reagent A was added. Compounds were screened in a 10 point titration with 3-fold serial dilutions starting at a concentration of 10 μM. The biochemical IC50s against other STK family members were measured similarly. The ATP concentration used matched the Km for each kinase.

| IC50 [nM] | SMILES |
| --- | --- |
| < 40 | Cc1cc(S(=O)(=O)N(C)C2CC2)ccc1-c1cnc(N)c(-c2ccc3c(c2)CCNC3=O)c1 [US10710978, Compound I-46] |
| < 40 | Nc1ncc(-c2cccc3sccc23)cc1-c1ccc2c(c1)CCNC2=O [US10710978, Compound I-15] |

From BindingDB's records for patent US10710978 (DANA-FARBER CANCER INSTITUTE, INC.; FONDAZIONE CENTRO SAN …, 2020)
